# Results: patent publication US11273142B2, “Treatment for tumors driven by metabolic dysfunction” (SynDevRx, Inc., priority 2016, dated 2022)
# Like-named read-outs stand apart in the source and are kept apart here.
# What was measured:
# [1] = cited from earlier work
# [2] = system: B16F10 melanoma; assay: B16F10 melanoma tumor growth in obese (DIO) and lean mice; format: in vivo, C57BL/6 male mice; settings: 2 mg/kg SC Q2D
# From the text: The study would compare weight changes in both obese and lean animal groups; measure biologic changes in hematology parameters; and compare conjugate molecules of the present disclosure against related small molecules for efficacy.
# (§1) C57BL/6 male mice were ad libitum fed TD.06414 a high fat diet (HFD) composed of 60% Kcal from fat (DIO) for 12-14 weeks, until average body weight of the obese mice was >40 g. Age-matched C57Bl/6 male mice were maintained on a normal rodent diet (10% fat, low-fat diet, LFD) for 12-14 weeks. The study was initiated by injecting 2×10^5 B16F10 melanoma cells into the flank of both lean and obese animals.
# (§2) The mice were treated with 5% mannitol/water (vehicle control), Compound 1 or Compound 4 once tumors had reached >100 mm^3. Treatment was via subcutaneous, intra-scapular injection at 5 ml/kg every four days (compound 1) or every 2 days (compound 4) over a 17 day period at the doses and on the schedule shown in Table 2.
# [3] = Body weight of B16F10 tumor-bearing obese and lean mice; format: in vivo, C57BL/6 male mice; settings: 2 mg/kg SC Q2D
# Method: as §1, §2
# [4] = system: B16F10 melanoma; assay: Metastatic lung lesions in B16F10 melanoma/DIO mice; format: in vivo, C57BL/6 male mice; settings: Obese Mice; 2 mg/kg
# Method: as §1, §2
# [5] = Adipose tissue mass in mice bearing B16F10 melanoma; format: in vivo, C57BL/6 male mice; settings: 2 mg/kg
# Method: as §1
# Treatment was via subcutaneous, intra-scapular injection at 5 ml/kg every four days (compound 1) or every 2 days (compound 4) over a 17 day period at the doses and on the schedule shown in Table 2.
# [6] = SD rats; 5 mg/kg/day (Kim et al.); cited from earlier work
# [7] = every fourth day schedule; limited by confusion and insomnia; cited from earlier work
# [8] = NOAEL in rat; settings: in vivo, after 3 mg/kg COMPOUND 1
# [9] = NOAEL in dog; settings: in vivo, after 0.5 mg/kg COMPOUND 1
# [10] = system: CYP3A 4 & 5; assay: CYP3A4/5 substrate status; format: in vitro ADME
# [11] = in combination with paclitaxel; dosed three times per week; cited from earlier work
compound,measurement,setting,value
COC1C(OC(=O)/C=C/c2ccc(OCCN(C)C)cc2)CC[C@]2(CO2)C1[C@@]1(C)O[C@@H]1CC=C(C)C (stereo partly drawn) [Compound 4],body weight effect,"[1]; C57BL/6J mice, 5 mg/kg/day (Kim et al.)",weight loss
same,body weight effect,"[1]; DIO mice, dosed at 1 mg/kg (Hughes et al.)",efficacious in eliciting weight loss
same,effect on tumor growth,[2]; lean mice,no effect on tumor growth
same,inhibition of growth of tumors,[2]; obese mice,28%
same,effect on body weight,[3]; lean mice,no effect on body weight
same,change in body weight,[3]; obese mice,−7.9%
same,"number of metastatic lung lesions, mean +/- SEM",[4],2.4+/−0.8 lesions/mouse
same,"Tissue Weight, Epididymal Fat",[5]; Lean Mice,0.134 g
same,"Tissue Weight, Inguinal Fat",[5]; Lean Mice,0.208 g
same,"Tissue Weight, Retroperitoneal Fat",[5]; Lean Mice,0.029 g
same,"Tissue Weight, Epididymal Fat",[5]; Obese Mice,0.424 g
same,"Tissue Weight, Inguinal Fat",[5]; Obese Mice,0.416 g
same,"Tissue Weight, Retroperitoneal Fat",[5]; Obese Mice,0.142 g
same,body weight effect,[6],weight loss
same,MTD,[7],15 mg/m2/day
COC1C(OC(=O)N[C@H]2CC[C@H](N)CC2)CC[C@]2(CO2)C1[C@@]1(C)O[C@@H]1CC=C(C)C (stereo partly drawn) [Compound 5],AUC,[8],23.3 ng·h/mL
same,Cmax,[8],1.5 ng/mL
same,AUC,[9],20.7 ng·h/mL
same,Cmax,[9],0.4 ng/mL
same,CYP3A 4 & 5 substrate,[10],substrate
"CO[C@@H]1[C@H](OC(=O)NC(=O)CCl)CC[C@]2(CO2)[C@H]1[C@@]1(C)O[C@@H]1CC=C(C)C [TNP-470, chloroacetylcarbamoylfumagillol]",obesity prevention,"[1]; mice, 15 or 20 mg/kg every other day (Brakenhielm)",prevention of obesity
same,body weight effect,"[1]; ob/ob mice, daily doses 2.5 mg/kg to 10 mg/kg (Rupnick et al.)",weight loss
same,MTD,[11],60 mg/m2
CO[C@@H]1[C@H](OC(=O)/C=C/C=C/C=C/C=C/C(=O)O)CC[C@]2(CO2)[C@H]1[C@@]1(C)O[C@@H]1CC=C(C)C [fumagillin],body weight effect,"[1]; C57BL/6 mice, oral 1 mg/kg daily (Lijnen et al.)",weight loss
